pIC50: −log10 of the molar value.
Experiments:
[1] = test system: HeLa cells; assay: Assay 1 cell proliferation measurement (CTG, 72 h), HeLa; type: cell-based, human; conditions: Homo sapiens, HeLa; Assay 1, 72 h, Cell Titer Glo; read-out: HeLa IC50 [nM] (Cervical cancer)
Method: Cell Proliferation Measurement
The antiproliferative activity of the compounds of the general formula (I) was examined in vitro in human cancer cells. For this purpose, the appropriate number of cells (Hela: 800; SK-MEL-3: 1000; A549: 800) were plated in 384-well plates with appropriate growth medium ((A549: DMEM/Ham's F12 (Biochrom; #FG 4815 with stabile Glutamine), FCS 10% final (Biochrom; #S 0415); Hela: DMEM/Ham's F12 (Biochrom; #FG 4815 with stabile Glutamine), FCS 10% final (Biochrom; #S 0415); SK-MEL-3: McCoy's 5A (Biochrom; #F 1015), FCS 10% final (Biochrom; #S 0415), L-Alanyl-L-Glutamine final: 2 mM, (Biochrom; #K 0302)) and incubated at 37° C. overnight. After 24 h, cells on one plate (0 h plate) were treated with 30 μl/cavity of CTG solution (Promega Cell Titer Glo (catalogue #G755B and G756B)) and incubated at room temperature for 10 min, and luminescence was measured by means of a VICTOR V (Perkin Elmer), in order to determine cell viability on commencement of treatment. The cells on the test plate were treated with the compounds of the general formula (I) as and incubated at 37° C. for 72 h. The compounds were added to the cells by means of an HP D300 digital dispenser in a 10-step 2.5-fold dilution series generally starting at a maximum final drug concentration of 100 nM. As control, the cells were treated with vehicle (DMSO at 0.3% final concentration). After 72 h, the cells were treated with 30 μl/cavity of CTG solution (Promega Cell Titer Glo (catalogue #G755B and G756B)) and incubated at room temperature for 10 min. and luminescence was measured by means of a VICTOR V (Perkin Elmer), in order to determine cell viability at the end of treatment. The percentage effect on cell growth and the IC50 derived therefrom were determined for each test substance using the values from the 0 h plate […] and the DMSO control […]. The IC50 values were calculated using a 4-parameter fit.

[2] = target: human full length PDE3A (Homo sapiens (Human), UniProt Q14432); assay: Assay 4 PDE3A enzyme inhibition (3H-cAMP SPA); type: biochemical; conditions: Sf9 cell extract
Method: Assay 4 Method for PDE3A Enzyme Inhibition
(§1) The commercially available 3H-cAMP Scintillation Proximity Assay (SPA, Perkin Elmer) system was used for enzyme inhibition studies. For the determination of the in vitro effect of example compounds on the PDE3A reactions 2 μl of the respective example compound solution in DMSO (serial dilutions) were placed in wells of microtiter plates (Isoplate-96/200W; Perkin Elmer). 50 μl of a dilution of PDE3A cell extract from Sf9 cells overexpressing human full length PDE3A (SB Drug Discovery, UK) in buffer A (50 mM Tris/HCl pH 7.5, 8.3 mM MgCl2, 1.7 mM EDTA, 0.2% BSA) was added. The dilution of the PDE3A cell extract was chosen such that the reaction kinetics was linear and less than 70% of the substrate was consumed (typical dilution 1:5000). The reaction was started by addition of 50 μl (0.025 μCi) of 1:2000 in buffer A w/o BSA diluted substrate [8-3H]adenosine 3′, 5′-cyclic phosphate (1 μCi/μl; Perkin Elmer). After incubation at room temperature for 60 min, the reaction was stopped by addition of 25 μl of a suspension containing 18 mg/ml yttrium scintillation proximity beads (Perkin Elmer) in water. The microtiter plates were sealed and measured in a Microbeta scintillation counter (PerkinElmer Wallac). IC50 values were determined from sigmoidal curves by plotting percentage PDE3A activity vs log compound concentration.

[3] = target: human full length PDE3B (Homo sapiens (Human), UniProt Q13370); assay: Assay 5 PDE3B enzyme inhibition (3H-cAMP SPA); type: biochemical; conditions: Sf9 cell extract
Method: as §1, with “PDE3B” for “PDE3A”, “1:6000).” for “1:5000).”

Sequence of human full length PDE3B (Q13370 whole entry): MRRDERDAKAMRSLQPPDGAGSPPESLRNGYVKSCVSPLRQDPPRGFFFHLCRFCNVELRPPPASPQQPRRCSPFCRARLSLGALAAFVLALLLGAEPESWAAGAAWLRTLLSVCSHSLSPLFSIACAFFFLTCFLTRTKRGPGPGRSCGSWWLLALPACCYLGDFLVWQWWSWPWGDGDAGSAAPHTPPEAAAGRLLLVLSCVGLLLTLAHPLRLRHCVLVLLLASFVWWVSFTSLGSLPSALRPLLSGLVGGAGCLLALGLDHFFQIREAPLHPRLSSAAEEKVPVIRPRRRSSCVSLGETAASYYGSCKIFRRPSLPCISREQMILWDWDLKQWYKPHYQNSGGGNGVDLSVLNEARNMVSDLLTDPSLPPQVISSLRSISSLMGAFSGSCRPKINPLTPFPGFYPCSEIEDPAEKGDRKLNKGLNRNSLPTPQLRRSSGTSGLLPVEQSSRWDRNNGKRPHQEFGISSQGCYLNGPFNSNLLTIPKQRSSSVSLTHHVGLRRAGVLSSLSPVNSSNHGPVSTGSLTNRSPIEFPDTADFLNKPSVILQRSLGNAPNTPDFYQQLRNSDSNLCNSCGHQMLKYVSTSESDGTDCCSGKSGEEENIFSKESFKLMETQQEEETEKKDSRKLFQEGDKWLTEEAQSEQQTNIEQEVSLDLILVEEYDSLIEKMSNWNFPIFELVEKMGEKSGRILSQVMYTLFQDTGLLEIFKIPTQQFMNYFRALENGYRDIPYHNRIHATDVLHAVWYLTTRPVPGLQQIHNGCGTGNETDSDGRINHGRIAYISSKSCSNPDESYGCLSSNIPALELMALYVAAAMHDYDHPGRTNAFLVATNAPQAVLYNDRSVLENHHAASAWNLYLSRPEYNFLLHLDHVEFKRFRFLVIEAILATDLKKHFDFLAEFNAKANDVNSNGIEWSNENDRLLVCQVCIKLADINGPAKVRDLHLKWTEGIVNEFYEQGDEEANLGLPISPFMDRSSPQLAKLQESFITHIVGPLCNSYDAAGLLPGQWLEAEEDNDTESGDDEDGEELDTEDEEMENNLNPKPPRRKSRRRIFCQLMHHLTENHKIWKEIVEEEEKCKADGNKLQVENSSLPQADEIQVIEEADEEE
Sequence of human full length PDE3A (Q14432 whole entry): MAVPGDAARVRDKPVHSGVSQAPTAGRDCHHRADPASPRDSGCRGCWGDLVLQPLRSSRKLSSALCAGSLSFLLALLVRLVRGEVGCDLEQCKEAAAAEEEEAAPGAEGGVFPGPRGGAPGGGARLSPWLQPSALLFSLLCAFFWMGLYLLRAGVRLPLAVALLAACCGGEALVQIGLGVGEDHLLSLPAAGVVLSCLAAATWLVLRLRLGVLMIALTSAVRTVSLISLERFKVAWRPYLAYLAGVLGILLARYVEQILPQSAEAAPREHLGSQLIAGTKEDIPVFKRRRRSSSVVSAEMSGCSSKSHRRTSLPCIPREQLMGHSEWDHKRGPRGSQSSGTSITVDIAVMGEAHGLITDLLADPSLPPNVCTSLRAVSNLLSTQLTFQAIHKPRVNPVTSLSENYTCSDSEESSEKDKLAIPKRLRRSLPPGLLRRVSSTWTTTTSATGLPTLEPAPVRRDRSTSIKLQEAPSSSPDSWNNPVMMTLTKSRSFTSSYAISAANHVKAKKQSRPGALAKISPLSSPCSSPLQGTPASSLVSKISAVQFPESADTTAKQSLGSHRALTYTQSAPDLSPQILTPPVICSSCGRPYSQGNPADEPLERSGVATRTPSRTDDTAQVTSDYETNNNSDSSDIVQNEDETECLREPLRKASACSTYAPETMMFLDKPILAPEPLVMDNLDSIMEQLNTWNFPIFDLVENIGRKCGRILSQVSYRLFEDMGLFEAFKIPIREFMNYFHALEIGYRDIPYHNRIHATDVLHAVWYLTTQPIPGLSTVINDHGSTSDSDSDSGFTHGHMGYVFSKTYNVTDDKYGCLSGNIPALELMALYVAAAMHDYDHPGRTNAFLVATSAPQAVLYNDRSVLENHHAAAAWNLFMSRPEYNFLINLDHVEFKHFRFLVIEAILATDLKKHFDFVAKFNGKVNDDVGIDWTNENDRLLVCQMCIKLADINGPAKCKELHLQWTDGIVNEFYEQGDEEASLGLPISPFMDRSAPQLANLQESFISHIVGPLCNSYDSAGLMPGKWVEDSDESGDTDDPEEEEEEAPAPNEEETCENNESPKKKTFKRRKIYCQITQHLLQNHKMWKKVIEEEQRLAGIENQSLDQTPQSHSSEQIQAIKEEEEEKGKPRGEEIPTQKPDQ

| Structure (SMILES) | IC50 [1] | pIC50 [2] | pIC50 [3] |
| --- | --- | --- | --- |
| COCC(O)CNc1ccc(C2=NNC(=O)OC2)cc1C(F)(F)F (racemic) [Example 235, (rac)-5-{4-[(2-Hydroxy-3-methoxypropyl)amino]-3-(trifluoromethyl)phenyl}-3,6-dihydro-2H-1,3,4-oxadiazin-2-one] | 4 nM | 6.77 | 6.74 |
| CCOC(C)CNc1ccc(C2=NNC(=O)OC2)cc1C(F)(F)F (racemic) [Example 241, (rac)-5-{4-[(2-Ethoxypropyl)amino]-3-(trifluoromethyl)phenyl}-3,6-dihydro-2H-1,3,4-oxadiazin-2-one] | 6 nM | 7.18 | 6.89 |
| COC(C)CNc1ccc(C2=NNC(=O)OC2)cc1C(F)(F)F (racemic) [Example 242, (rac)-5-{4-[(2-Methoxypropyl)amino]-3-(trifluoromethyl)phenyl}-3,6-dihydro-2H-1,3,4-oxadiazin-2-one] | 2 nM | 7.04 | 6.89 |
| CC1(C)CC1CNc1ccc(C2=NNC(=O)OC2)cc1C(F)(F)F (racemic) [Example 248, (rac)-5-[4-{[(2,2-Dimethylcyclopropyl)methyl]amino}-3-(trifluoromethyl)phenyl]-3,6-dihydro-2H-1,3,4-oxadiazin-2-one] | 6 nM | 7.21 | 6.85 |
| CC[C@@H](CO)Nc1ccc(C2=NNC(=O)OC2)cc1C(F)(F)F [Example 228, 5-[4-{[(2S)-1-Hydroxybutan-2-yl]amino}-3-(trifluoromethyl)phenyl]-3,6-dihydro-2H-1,3,4-oxadiazin-2-one] | 7 nM | 6.40 | 6.04 |
| CC(C)(CO)CNc1ccc(C2=NNC(=O)OC2)cc1C(F)(F)F [Example 231, 5-{4-[(3-Hydroxy-2,2-dimethylpropyl)amino]-3-(trifluoromethyl)phenyl}-3,6-dihydro-2H-1,3,4-oxadiazin-2-one] | 2 nM | 7.00 | 6.96 |
| Cn1nccc1CNc1ccc(C2=NNC(=O)OC2)cc1C(F)(F)F [Example 236, 5-[4-{[(1-Methyl-1H-pyrazol-5-yl)methyl]amino}-3-(trifluoromethyl)phenyl]-3,6-dihydro-2H-1,3,4-oxadiazin-2-one] | 4 nM | 7.35 | 7.27 |
| O=C1NN=C(c2ccc(NCc3cc[nH]n3)c(C(F)(F)F)c2)CO1 [Example 237, 5-[4-{[(1H-Pyrazol-3-yl)methyl]amino}-3-(trifluoromethyl)phenyl]-3,6-dihydro-2H-1,3,4-oxadiazin-2-one] | 0.4 nM | 6.92 | 6.85 |
| O=C1NN=C(c2ccc(NCCn3cccn3)c(C(F)(F)F)c2)CO1 [Example 238, 5-[4-{[2-(1H-Pyrazol-1-yl)ethyl]amino}-3-(trifluoromethyl)phenyl]-3,6-dihydro-2H-1,3,4-oxadiazin-2-one] | 7 nM | 7.06 | 6.52 |
| CCN(CCC#N)c1ccc(C2=NNC(=O)OC2)cc1C(F)(F)F [Example 314, 3-{ethyl[4-(2-oxo-3,6-dihydro-2H-1,3,4-oxadiazin-5-yl)-2-(trifluoromethyl)phenyl]amino}propanenitrile] | > 100 nM | – | – |
| CC(=O)NCCNc1ccc(C2=NNC(=O)OC2)cc1C(F)(F)F [Example 316, N-{2-[4-(2-oxo-3,6-dihydro-2H-1,3,4-oxadiazin-5-yl)-2-(trifluoromethyl)anilino]ethyl}acetamide] | > 100 nM | – | – |

Further lines, results first:

| IC50 [1] | pIC50 [2] | pIC50 [3] | Structure (SMILES) |
| --- | --- | --- | --- |
| 1 nM | 7.09 | 7.17 | O=C1NN=C(c2ccc(N3CCCC(O)C3)c(C(F)(F)F)c2)CO1 (racemic) [Example 229, (rac)-5-[4-(3-hydroxypiperidin-1-yl)-3-(trifluoromethyl)phenyl]-3,6-dihydro-2H-1,3,4-oxadiazin-2-one] |
| 7 nM | 7.24 | 7.00 | NC(=O)C1CCCN(c2ccc(C3=NNC(=O)OC3)cc2C(F)(F)F)C1 (racemic) [Example 230, (rac)-1-[4-(2-Oxo-3,6-dihydro-2H-1,3,4-oxadiazin-5-yl)-2-(trifluoromethyl)phenyl]piperidine-3-carboxamide] |
| 3 nM | 7.12 | 7.00 | O=C1NN=C(c2ccc(NCC3CCOC3)c(C(F)(F)F)c2)CO1 (racemic) [Example 245, (rac)-5-[4-{[(Oxolan-3-yl)methyl]amino}-3-(trifluoromethyl)phenyl]-3,6-dihydro-2H-1,3,4-oxadiazin-2-one] |
| 10 nM | 7.19 | 6.74 | O=C1CCC(CNc2ccc(C3=NNC(=O)OC3)cc2C(F)(F)F)CN1 (racemic) [Example 247, (rac)-5-[4-{[(6-Oxopiperidin-3-yl)methyl]amino}-3-(trifluoromethyl)phenyl]-3,6-dihydro-2H-1,3,4-oxadiazin-2-one] |
| 1 nM | 7.89 | 8.05 | O=C1NN=C(c2ccc(N3CCC(O)CC3)c(C(F)(F)F)c2)CO1 [Example 227, 5-[4-(4-Hydroxypiperidin-1-yl)-3-(trifluoromethyl)phenyl]-3,6-dihydro-2H-1,3,4-oxadiazin-2-one] |
| 8 nM | 7.07 | 6.60 | O=C1NN=C(c2ccc(N[C@@H]3C[C@@H]4CC[C@@H]3C4)c(C(F)(F)F)c2)CO1 [Example 233, 5-[4-{[(1R,2R,4R)-Bicyclo[2.2.1]heptan-2-yl]amino}-3-(trifluoromethyl)phenyl]-3,6-dihydro-2H-1,3,4-oxadiazin-2-one] |
| 2 nM | 7.11 | 7.14 | O=C1NN=C(c2ccc(N3CC[C@H](O)C3)c(C(F)(F)F)c2)CO1 [Example 234, 5-{4-[(3S)-3-Hydroxypyrrolidin-1-yl]-3-(trifluoromethyl)phenyl}-3,6-dihydro-2H-1,3,4-oxadiazin-2-one] |
| > 100 nM | – | – | CCN1CCCC1CNc1ccc(C2=NNC(=O)OC2)cc1C(F)(F)F (centres unmarked) [Example 315, 5-[4-{[(1-ethylpyrrolidin-2-yl)methyl]amino}-3-(trifluoromethyl)phenyl]-3,6-dihydro-2H-1,3,4-oxadiazin-2-one] |
| > 100 nM | – | – | O=C1NN=C(c2ccc(NCCN3CCCCC3)c(C(F)(F)F)c2)CO1 [Example 317, 5-[4-{[2-(piperidin-1-yl)ethyl]amino}-3-(trifluoromethyl)phenyl]-3,6-dihydro-2H-1,3,4-oxadiazin-2-one] |
| > 100 nM | – | – | CN1CCCC1CCNc1ccc(C2=NNC(=O)OC2)cc1C(F)(F)F (centres unmarked) [Example 318, 5-[4-{[2-(1-methylpyrrolidin-2-yl)ethyl]amino}-3-(trifluoromethyl)phenyl]-3,6-dihydro-2H-1,3,4-oxadiazin-2-one] |

Reference: US11427553B2, “Dihydrooxadiazinones” (Bayer Aktiengesellschaft, priority 2017, dated 2022)
